Reference: the METLIN SMRT retention time set (Domingo-Almenara et al. 2019)

Test: gradient 5% acetonitrile 3 min, to 50% in 2 min, to 85% in 15 min, held 3 min, 100 µL/min
Conditions: column: Zorbax Extend-C18 2.1 x 50 mm; eluents: water / acetonitrile, 0.1% formic acid
How it was run: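 The system's dead and dwell volumes were 40 μL and 900 μL, with a Zorbax Extend-C18 column (2.1 × 50 mm, 1.8 μm) run at 100 μL/min in water and acetonitrile containing 0.1% formic acid each. Pure standards were analyzed in mixtures of ~100 molecules by HPLC–quadrupole time-of-flight mass spectrometry in positive and negative ionization mode. Retention time was assigned from computationally picked, manually inspected adduct peaks.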

Point of comparison: CCOC(=O)c1[nH]c(C)c(CN(Cc2ccccc2)C(=O)c2ccco2)c1C, RP-LC retention time 946 s. Against it:
- O=C(c1cc(F)ccc1F)N1CCCC2(C1)NC(=O)N(Cc1ccc(Cl)cc1)C2=O (stereo not given) — lower, 844 s
- Cc1cc(OCC(=O)Nc2nc(-c3ccccc3)cs2)cc(C)c1Cl — higher, 1250 s
- Cc1ccc(Cn2nc3ccc(S(=O)(=O)N4CCCCCC4)cn3c2=O)cc1C — higher, 1070 s
- COc1ccc(-c2cc(C(=O)N(C)C3CCN(C)CC3)nn2C2CCS(=O)(=O)C2)cc1 (stereo not given) — lower, 600 s
- O=C(NC1CCCCC1)N1CCCC(c2nnnn2-c2ccccc2)C1 (stereo not given) — lower, 818 s
- O=C(CCc1c(-c2ccc(Cl)cc2)nc2ccccn12)NCCCc1ccccc1 — lower, 719 s
- Cc1cc(C)cc(NS(=O)(=O)c2c(C)sc(C)c2-c2n[nH]c(C)c2C)c1 — higher, 1110 s
- Cc1ccc(-c2nc3cnccn3c2Nc2ccc(C(=O)O)cc2)cc1 — lower, 706 s
- CC[C@H](C)NC(=O)Cc1nnc(-c2ccccc2)o1 — lower, 705 s
- O=C1CC(c2nc(-c3ccccc3F)no2)CN1c1ccc2c(c1)OCO2 (stereo not given) — lower, 865 s
- O=C(NCc1cccs1)c1ccc2c(c1)CC(=O)N2Cc1ccccc1 — lower, 817 s
- CCc1ccc(NC(=O)Cn2nc(N3CCCC3)c3ccccc3c2=O)cc1 — higher, 1030 s
- Cc1ccc(Cl)cc1NC(=O)Cn1nc2c3cc(Cl)ccc3ncn2c1=O — lower, 770 s
- CCn1c(CCNC(=O)c2ccc(F)c(F)c2)nc2cccnc21 — lower, 641 s
- CCC(=O)NCCc1csc(C2CCCN(C(=O)C(C)(C)C)C2)n1 (stereo not given) — lower, 685 s
- Cc1ccccc1NC(=O)CSc1ccc(N2CCCC(C(=O)NC3CC3)C2)nn1 (stereo not given) — lower, 637 s
- COc1cccc(Cn2ccc3ccn(CCN(C)C)c3c2=O)c1 — lower, 639 s
- Cc1ccc(NC(=O)N2CCC(CN3CCCC(C)C3)CC2)cc1C (stereo not given) — lower, 645 s
- COc1ccc(-c2noc(Cn3ncn4nc(-c5ccc(F)cc5)cc4c3=O)n2)cc1OC — higher, 1000 s
- O=C(NCCCn1cccc1)c1ccno1 — lower, 644 s
- CCOC(=O)c1c(C)oc2nc(C)nc(N3CCN(c4ccccc4OC)CC3)c12 — higher, 1020 s
- O=C(CN1C(=O)C2CCCCN2c2ccc(S(=O)(=O)N3CCCC3)cc21)N1CCOCC1 (stereo not given) — lower, 750 s
- Cc1ccc(CNC(=O)Cn2ccc3c(SCc4ccc(F)cc4)nccc32)o1 — lower, 735 s
- CCn1cc(CCN2CCC(C(=O)N3CCOCC3)CC2)c2cccnc21 — lower, 566 s
- COC(=O)c1nc(NC(=O)Cn2nc3c(cc2=O)CCCCC3)sc1CC(C)C — lower, 941 s
- CCCN1C(=O)Cc2ccccc2C1C(=O)O (stereo not given) — lower, 668 s
- COc1ccc(-c2nnc(-c3ccc(Cl)c(S(=O)(=O)N(C)C)c3)o2)cc1 — lower, 913 s
- COC(=O)C1=CN(C2CC2)c2cc(N3CCC(C)CC3)c(F)cc2S1(=O)=O — higher, 1010 s
- CC(C)CNC(=O)NC(c1ccccc1)c1nnc(-c2ccccc2Cl)o1 (stereo not given) — lower, 898 s
- Cc1ccc(N2CC(c3nc(-c4cccs4)no3)CC2=O)cc1 (stereo not given) — lower, 877 s
- Cc1ccc2c(c1)N(S(C)(=O)=O)CCC(C(=O)Nc1ccc(C)c(C)c1)O2 (stereo not given) — lower, 912 s
- O=C(NC1CC1)c1cc(-c2cccs2)on1 — lower, 788 s
- O=C(Cn1c(=O)sc2ccccc21)Nc1nc(-c2ccc(Br)cc2)cs1 — higher, 1070 s
- CCc1ccc(NC(=O)NC2CCN(c3ccc(F)c(C)c3)C2=O)cc1 (stereo not given) — lower, 905 s
- O=C(NCC(=O)N1CC2CN(S(=O)(=O)c3cccc(F)c3)CC(C1)O2)c1ccccc1 — lower, 730 s
- CCOC(=O)c1[nH]c(C)c(CCC(=O)N2CCC(C(=O)NCc3ccc(OC)c(OC)c3)CC2)c1C — lower, 700 s
- CCc1cc(C(=O)N2CCOCC2)nc2cc(-c3cccs3)nn12 — lower, 838 s
- COc1ccc(N2CC(c3nc(-c4ccc5c(c4)OCO5)no3)CC2=O)cc1 (stereo not given) — lower, 891 s
- O=C(Cc1ccsc1)Nc1ccc(N2CCN(c3ccccc3)C2=O)nc1 — lower, 811 s
- O=S(=O)(NCCN1CCOC(c2ccccc2)C1)c1ccc2c(c1)CCCC2 (stereo not given) — lower, 632 s
- O=C(NCc1ccc(F)c(Cl)c1)c1cn2c(n1)COCC2 — lower, 690 s
- COc1ccc(-c2noc(CN3C(=O)COc4cc(C(C)(C)C)ccc43)n2)cc1OC — higher, 1110 s
- CC(C)NC(=O)c1ccc(OCC2CCN(C(=O)c3ccc(Br)o3)CC2)cc1 — lower, 878 s
- O=c1ccc(-c2cccc(Br)c2)nn1Cc1ccncc1 — lower, 595 s
